Experimental data: US12678511B2, “Peptide and use thereof” (Kansai Medical University Educational Corgoration, priority 2019, dated 2026)
Peptide text beside a SMILES is read from it. * marks the point of attachment. 5FAM = O=C1OC2(c3ccc(O)cc3Oc3cc(O)ccc32)c2ccc(C(=O)*)cc21

Legend:
[1] = tested on: cancer stroma of the stomach scirrhous carcinoma (HSC58 cells and hMSC); experiment: Absorption into cancer stroma of scirrhous stomach cancer mouse model; assay type: in vivo; details: 300 μg intravenous, 60 minutes after injection, FIG. 10B
Description: Stomach poorly differentiated scirrhous adenocarcinoma, which is an example of a typical scirrhous carcinoma, is classified by visual classification into type 4 stomach cancer, and this type 4 stomach cancer has an extremely poor prognosis, with a five-year survival rate of about at least 4% but not more than 16%. Accordingly, in order to investigate the application of [FAM]-tandem MSCPP106 to the CAF that develop in the scirrhous stroma of cancer other than pancreatic cancer, a scirrhous stomach cancer mouse transplanted model was produced, and the absorption into scirrhous cancer stroma other than pancreatic cancer was investigated. With the exceptions of using human stomach poorly differentiated adenocarcinoma HSC58 cells instead of the BxPC3 cells, and rearing the mouse for 40 days from the time of cell injection, the same method as Example 7 was used to obtain a scirrhous stomach cancer mouse model. The HSC58 cells are a low metastatic human scirrhous stomach cancer cell line. Subsequently, [FAM]-tandem MSCPP106 (300 μg) was injected intravenously into the obtained scirrhous cancer mouse model, and the in-vivo absorption pharmacokinetics of the peptide 60 minutes after the intravenous injection were analyzed by tissue analysis of the freshly dissected specimen of the peptide-administered mouse. […]

[2] = tested on: cancer stroma (fibrous stroma) of tumor tissue, BxPC3 cells and hMSC transplanted; experiment: Selective absorption in scirrhous pancreatic cancer model mouse (tissue analysis); assay type: in vivo; details: 200 μg intravenous, 30 minutes after injection, FIG. 7B, 7C
Description: A scirrhous pancreatic cancer model mouse having scirrhous carcinoma that forms abundant cancer stroma was produced in accordance with the method disclosed in Reference Document 1 (Saito K et al., “Stromal mesenchymal stem cells facilitate pancreatic cancer progression by regulating specific secretory molecules through mutual cellular interaction.”, Journal of Cancer, Vol. 9, No. 16, pp. 2916-2929, 2018). Specifically, 6-week old NOD/SCID mice (CLEA Japan Inc., Japan) were raised under pathogen-free conditions. A cell mixture containing BxPC3 cells (1×10^5 cells) and hMSC (1×10^5 cells) was injected either subcutaneously or into the abdominal cavity of each mouse. By raising the mice for 6 weeks from the time of cell injection, scirrhous pancreatic cancer model mice were obtained having an abundantly developed cancer stroma that imitates the tissue in a human pancreatic cancer patient (see FIG. 7A).
[FAM]-tandem MSCPP106 (200 μg) was injected intravenously into each obtained scirrhous carcinoma model mouse. Subsequently, the pharmacokinetics of the peptide 30 minutes after the intravenous injection were analyzed by tissue analysis of the freshly dissected specimen of the peptide-administered mouse. FIG. 7B is a series of bright-field images (left) and fluorescent images (right) of various tissues and tumor tissues resected from the scirrhous carcinoma model mouse. […]

CC(C)C[C@H](NC(=O)[C@H](Cc1c[nH]cn1)NC(=O)[C@H](CCCNC(=N)N)NC(=O)[C@H](Cc1ccccc1)NC(=O)[C@H](CC(C)C)NC(=O)[C@H](CCC(=O)O)NC(=O)[C@H](C)NC(=O)[C@H](CS)NC(=O)[C@H](CCCCN)NC(=O)CNC(=O)[C@H](CC(C)C)NC(=O)[C@H](Cc1c[nH]cn1)NC(=O)[C@H](CCCNC(=N)N)NC(=O)[C@H](Cc1ccccc1)NC(=O)[C@H](CC(C)C)NC(=O)[C@H](CCC(=O)O)NC(=O)[C@H](C)NC(=O)[C@H](CS)NC(=O)[C@H](CCCCN)NC(=O)c1ccc2c(c1)C(=O)OC21c2ccc(O)cc2Oc2cc(O)ccc21)C(=O)O [[FAM]-tandem MSCPP106] (5FAM-KCAELFRHLGKCAELFRHL-OH)
absorption into the cancer stroma of the stomach scirrhous carcinoma [1]: strong selective absorption | absorption into the cancer stroma (fibrous stroma) inside tumor tissue [2]: strong absorption
